Laboratory results as given in patent US8461083B2, “Herbicidal compounds” (Syngenta Limited, priority 2008, dated 2013).

Tests used:
Assay type in all cases: in vivo
[1] = test system: Amaranthus retoflexus (AMARE); assay: Pre-emergence herbicidal glasshouse test; conditions: pre-emergence (sprayed after one day cultivation), evaluated after 13 days, 100=total damage to plant, 0=no damage to plant; for PRE Application AMARE, damage to plant: 1000 g/ha; for pest or weed control at 1000 g/ha: Amaranthus retroflexus, 312 h, read-out: PRE Application AMARE, damage to plant
How it was run: (§1)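 Spray at 1000 g/ha, acetone/water 50:50 + 0.5% Tween 20; pre-em 1 d post-sowing, post-em 8 d post-sowing. Glasshouse 24/16 °C, 14 h light, 65% RH, watered twice daily. Visual damage score 0–100 at 13 d.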

Setaria faberi (SETFA) [2] = assay: Pre-emergence herbicidal glasshouse test; conditions: pre-emergence (sprayed after one day cultivation), evaluated after 13 days, 100=total damage to plant, 0=no damage to plant; for PRE Application SETFA, damage to plant: 1000 g/ha; for pest or weed control at 1000 g/ha: Setaria faberi, 312 h, read-out: PRE Application SETFA, damage to plant
How it was run: as §1

[3] = test system: Alopecurus myosuroides (ALOMY); assay: Pre-emergence herbicidal glasshouse test; conditions: pre-emergence (sprayed after one day cultivation), evaluated after 13 days, 100=total damage to plant, 0=no damage to plant; for PRE Application ALOMY, damage to plant: 1000 g/ha; for pest or weed control at 1000 g/ha: Alopecurus myosuroides, 312 h, read-out: PRE Application ALOMY, damage to plant
How it was run: as §1

Solanum nigrum (SOLNI) [4] = assay: Pre-emergence herbicidal glasshouse test; conditions: pre-emergence (sprayed after one day cultivation), evaluated after 13 days, 100=total damage to plant, 0=no damage to plant; for PRE Application SOLNI, damage to plant: 1000 g/ha; for pest or weed control at 1000 g/ha: Solanum nigrum, 312 h, read-out: PRE Application SOLNI, damage to plant
How it was run: as §1

[5] = test system: Echinochloa crus-galli (ECHCG); assay: Pre-emergence herbicidal glasshouse test; conditions: pre-emergence (sprayed after one day cultivation), evaluated after 13 days, 100=total damage to plant, 0=no damage to plant; for PRE Application ECHCG, damage to plant: 1000 g/ha; for pest or weed control at 1000 g/ha: Echinochloa crus-galli, 312 h, read-out: PRE Application ECHCG, damage to plant
How it was run: (§2)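 Sow in standard soil; grow 1 d (pre-emergence) or 8 d (post-emergence) at 24/16 °C, 14 h light, 65% humidity. Spray test compound at 1000 g/ha in aqueous acetone (50:50) with 0.5% Tween 20. Grow on under the same conditions and score injury (0–100) after 13 days.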

[6] = test system: Amaranthus retoflexus (AMARE); assay: Post-emergence herbicidal glasshouse test; conditions: post-emergence (sprayed after 8 days cultivation), evaluated after 13 days, 100=total damage to plant, 0=no damage to plant; for POST Application AMARE, damage to plant: 1000 g/ha; for pest or weed control at 1000 g/ha: Amaranthus retroflexus, 312 h, read-out: POST Application AMARE, damage to plant
How it was run: as §1

Setaria faberi (SETFA) [7] = assay: Post-emergence herbicidal glasshouse test; conditions: post-emergence (sprayed after 8 days cultivation), evaluated after 13 days, 100=total damage to plant, 0=no damage to plant; for POST Application SETFA, damage to plant: 1000 g/ha; for pest or weed control at 1000 g/ha: Setaria faberi, 312 h, read-out: POST Application SETFA, damage to plant
How it was run: as §1

[8] = test system: Alopecurus myosuroides (ALOMY); assay: Post-emergence herbicidal glasshouse test; conditions: post-emergence (sprayed after 8 days cultivation), evaluated after 13 days, 100=total damage to plant, 0=no damage to plant; for POST Application ALOMY, damage to plant: 1000 g/ha; for pest or weed control at 1000 g/ha: Alopecurus myosuroides, 312 h, read-out: POST Application ALOMY, damage to plant
How it was run: as §1

Solanum nigrum (SOLNI) [9] = assay: Post-emergence herbicidal glasshouse test; conditions: post-emergence (sprayed after 8 days cultivation), evaluated after 13 days, 100=total damage to plant, 0=no damage to plant; for POST Application SOLNI, damage to plant: 1000 g/ha; for pest or weed control at 1000 g/ha: Solanum nigrum, 312 h, read-out: POST Application SOLNI, damage to plant
How it was run: as §1

[10] = test system: Echinochloa crus-galli (ECHCG); assay: Post-emergence herbicidal glasshouse test; conditions: post-emergence (sprayed after 8 days cultivation), evaluated after 13 days, 100=total damage to plant, 0=no damage to plant; for POST Application ECHCG, damage to plant: 1000 g/ha; for pest or weed control at 1000 g/ha: Echinochloa crus-galli, 312 h, read-out: POST Application ECHCG, damage to plant
How it was run: as §2

SMILES | PRE Application AMARE, damage to plant [1] | PRE Application SETFA, damage to plant (Setaria faberi (SETFA) [2]) | PRE Application ALOMY, damage to plant [3] | PRE Application SOLNI, damage to plant (Solanum nigrum (SOLNI) [4]) | PRE Application ECHCG, damage to plant [5] | POST Application AMARE, damage to plant [6] | POST Application SETFA, damage to plant (Setaria faberi (SETFA) [7]) | POST Application ALOMY, damage to plant [8] | POST Application SOLNI, damage to plant (Solanum nigrum (SOLNI) [9]) | POST Application ECHCG, damage to plant [10] | pest or weed control at 1000 g/ha [1] [%] | pest or weed control at 1000 g/ha (Setaria faberi (SETFA) [2]) [%] | pest or weed control at 1000 g/ha [3] [%] | pest or weed control at 1000 g/ha (Solanum nigrum (SOLNI) [4]) [%] | pest or weed control at 1000 g/ha [5] [%] | pest or weed control at 1000 g/ha [6] [%] | pest or weed control at 1000 g/ha (Setaria faberi (SETFA) [7]) [%] | pest or weed control at 1000 g/ha [8] [%] | pest or weed control at 1000 g/ha (Solanum nigrum (SOLNI) [9]) [%] | pest or weed control at 1000 g/ha [10] [%]
Cc1nc2nc(C(F)(F)Cl)c(C(=O)C3C(=O)CCCC3=O)cc2cc1F [Compound 1.87, 2-(2-chlorodifluoromethyl-6-fluoro-7-methyl-[1,8]-naphthyridine-3-carbonyl)-cyclohexane-1,3-dione] | 100 | 100 | 60 | 100 | 100 | 80 | 80 | 70 | 90 | 90 | – | – | – | – | – | – | – | – | – | –
O=C1CCCC(=O)C1C(=O)c1cc2ccc(C(F)F)nc2nc1C(F)(F)F [Compound 1.12] | – | – | – | – | – | – | – | – | – | – | 100 | 100 | 90 | 100 | 100 | 60 | 100 | 100 | 100 | 100
C/C=C/c1nc2nc(C(F)(F)F)c(C(=O)C3C(=O)CCCC3=O)cc2cc1F [Compound 1.72, 2-(6-fluoro-7-[(E)(prop-1-enyl)]-2-trifluoromethyl-[1,8]-naphthyridine-3-carbony)-cyclohexane-1,3-dione] | 60 | 90 | 30 | 90 | 90 | 70 | 80 | 50 | 60 | 70 | – | – | – | – | – | – | – | – | – | –
O=C1CCCC(=O)C1C(=O)c1cc2ccc(=O)n(CCc3ccccc3)c2nc1C(F)(F)F [Compound 2.15, 2-{8-(2-phenylethyl)-7-oxo-7,8-dihydro-2-trifluoromethyl-[1,8]-naphthyridine-3-carbonyl}-cyclohexane-1,3-dione] | – | – | – | – | – | – | – | – | – | – | 30 | 40 | 10 | 90 | 90 | 70 | 90 | 40 | 90 | 80
Cn1c(=O)ccc2cc(C(=O)C3C(=O)CCCC3=O)c(C(F)(F)F)nc21 [Compound 2.21, 2-(8-methyl-7-oxo-7,8-dihydro-2-trifluoromethyl-[1,8]-naphthyridine-3-carbony)-cyclohexane-1,3-dione] | – | – | – | – | – | – | – | – | – | – | 100 | 100 | 90 | 100 | 100 | 90 | 80 | 80 | 80 | 70
COC(C)c1ccc2cc(C(=O)C3C(=O)CCCC3=O)c(C(F)(F)F)nc2n1 (stereo not shown) [Compound 1.63, 2-[7-(1-methoxyethyl)-2-trifluoromethyl-[1,8]-naphthyridine-3-carbony]-cyclohexane-1,3-dione] | 100 | 100 | 70 | 100 | 100 | 100 | 90 | 90 | 80 | 90 | – | – | – | – | – | – | – | – | – | –
O=C(c1cc2cc(F)c(O)nc2nc1C(F)(F)F)C1C(=O)C2CCC(C2)C1=O (stereo not shown) [Compound 3.1] | – | – | – | – | – | – | – | – | – | – | 100 | 90 | 60 | 100 | 90 | 80 | 80 | 60 | 80 | 70
CC(F)(F)c1ccc2cc(C(=O)C3C(=O)CCCC3=O)c(C(F)(F)F)nc2n1 [Compound 1.36, 2-[7-(1,1-difluoroethyl)-2-trifluoromethyl-[1,8]-naphthyridine-3-carbony]-cyclohexane-1,3-dione] | 100 | 100 | 70 | 100 | 90 | 100 | 90 | 90 | 100 | 90 | – | – | – | – | – | – | – | – | – | –
CC#CCn1c(=O)ccc2cc(C(=O)C3C(=O)CCCC3=O)c(C(F)(F)F)nc21 [Compound 2.19, 2-(8-(But-2-ynyl)-7-oxo-7,8-dihydro-2-trifluoromethyl-[1,8]-naphthyridine-3-carbony)-cyclohexane-1,3-dione] | 100 | 100 | 100 | 100 | 100 | 70 | 100 | 100 | 100 | 90 | – | – | – | – | – | – | – | – | – | –
O=C1CCCC(=O)C1C(=O)c1cc2ccc(Oc3ccccc3)nc2nc1C(F)(F)F [Compound 1.17, 2-(7-phenoxy-2-trifluoromethyl-[1,8]-naphthyridine-3-carbonyl)-cyclohexane-1,3-dione] | – | – | – | – | – | – | – | – | – | – | 100 | 100 | 100 | 100 | 100 | 70 | 100 | 90 | 100 | 90
